For 9 compounds, % of control, % of inhibition and IC50 results are on record in ChEMBL document CHEMBL5465560, “Selectivity Literature for EUbOPEN Chemogenomic Library” (2024).

The term IC50 denotes the point on the concentration scale where inhibition reaches its midpoint. Read a low IC50 as greater potency in that assay.

Test [1] addresses Serine/threonine-protein kinase 26 (Homo sapiens, UniProt Q9P289). Kind of test: Selectivity interaction (KinomeScan (DiscoverX)) EUB0000666a STK26. The settings on record: at 10 µM.
Test [2] has as its target Serine/threonine-protein kinase N1 (Homo sapiens, UniProt Q16512). To be noted: at 10 µM.
Test [3] has as its target Cyclin-dependent kinase 13 (Homo sapiens, UniProt Q14004). The test can be described thus: Selectivity interaction (ActivX KiNativ screen (kinase selectivity in THP-1 cell lysates)) EUB0000639a CDK13. The format is subcellular. To be noted: lysate.
Test [4] has as its target T1, MAP/microtubule affinity-regulating kinase 4 (Homo sapiens) (UniProt Q96L34).
T1 sequence (whole entry): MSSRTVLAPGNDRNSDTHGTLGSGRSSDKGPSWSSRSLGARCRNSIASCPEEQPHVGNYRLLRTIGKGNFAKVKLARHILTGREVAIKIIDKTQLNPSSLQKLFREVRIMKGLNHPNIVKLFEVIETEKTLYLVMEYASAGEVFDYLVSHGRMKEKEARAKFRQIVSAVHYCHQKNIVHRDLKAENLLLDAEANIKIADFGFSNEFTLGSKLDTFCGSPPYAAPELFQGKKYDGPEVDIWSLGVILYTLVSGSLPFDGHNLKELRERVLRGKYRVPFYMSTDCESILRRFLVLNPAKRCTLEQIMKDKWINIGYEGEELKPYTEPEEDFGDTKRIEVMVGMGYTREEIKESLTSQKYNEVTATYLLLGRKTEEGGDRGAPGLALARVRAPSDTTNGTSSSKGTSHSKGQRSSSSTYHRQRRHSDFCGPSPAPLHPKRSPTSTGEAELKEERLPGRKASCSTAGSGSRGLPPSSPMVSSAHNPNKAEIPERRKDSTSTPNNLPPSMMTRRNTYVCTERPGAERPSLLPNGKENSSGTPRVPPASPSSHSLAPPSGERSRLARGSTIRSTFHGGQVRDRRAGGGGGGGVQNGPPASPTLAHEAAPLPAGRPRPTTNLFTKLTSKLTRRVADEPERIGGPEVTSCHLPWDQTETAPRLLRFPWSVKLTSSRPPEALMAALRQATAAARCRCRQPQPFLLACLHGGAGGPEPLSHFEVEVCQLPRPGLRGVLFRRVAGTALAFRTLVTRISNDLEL
The test can be described thus: Selectivity interaction (ActivX KiNativ screen (kinase selectivity in THP-1 cell lysates)) EUB0000639a MARK4. The format is subcellular. To be noted: lysate.

For test [5], the target named is 5'-AMP-activated protein kinase catalytic subunit alpha-1 (Homo sapiens, UniProt Q13131). Kind of test: Selectivity interaction (ActivX KiNativ screen (kinase selectivity in THP-1 cell lysates)) EUB0000639a PRKAA1. To be noted: lysate, at 0.04 µM. The format is subcellular.
Test [6] relates to Hepatocyte growth factor receptor (Homo sapiens), P08581 [M1250T]. Kind of test: (§1) Selectivity interaction (KinomeScan (DiscoverX)) EUB0000045b MET.
Hepatocyte growth factor receptor (Homo sapiens), P08581 [M1250T], sequence (P08581 whole entry M1250T): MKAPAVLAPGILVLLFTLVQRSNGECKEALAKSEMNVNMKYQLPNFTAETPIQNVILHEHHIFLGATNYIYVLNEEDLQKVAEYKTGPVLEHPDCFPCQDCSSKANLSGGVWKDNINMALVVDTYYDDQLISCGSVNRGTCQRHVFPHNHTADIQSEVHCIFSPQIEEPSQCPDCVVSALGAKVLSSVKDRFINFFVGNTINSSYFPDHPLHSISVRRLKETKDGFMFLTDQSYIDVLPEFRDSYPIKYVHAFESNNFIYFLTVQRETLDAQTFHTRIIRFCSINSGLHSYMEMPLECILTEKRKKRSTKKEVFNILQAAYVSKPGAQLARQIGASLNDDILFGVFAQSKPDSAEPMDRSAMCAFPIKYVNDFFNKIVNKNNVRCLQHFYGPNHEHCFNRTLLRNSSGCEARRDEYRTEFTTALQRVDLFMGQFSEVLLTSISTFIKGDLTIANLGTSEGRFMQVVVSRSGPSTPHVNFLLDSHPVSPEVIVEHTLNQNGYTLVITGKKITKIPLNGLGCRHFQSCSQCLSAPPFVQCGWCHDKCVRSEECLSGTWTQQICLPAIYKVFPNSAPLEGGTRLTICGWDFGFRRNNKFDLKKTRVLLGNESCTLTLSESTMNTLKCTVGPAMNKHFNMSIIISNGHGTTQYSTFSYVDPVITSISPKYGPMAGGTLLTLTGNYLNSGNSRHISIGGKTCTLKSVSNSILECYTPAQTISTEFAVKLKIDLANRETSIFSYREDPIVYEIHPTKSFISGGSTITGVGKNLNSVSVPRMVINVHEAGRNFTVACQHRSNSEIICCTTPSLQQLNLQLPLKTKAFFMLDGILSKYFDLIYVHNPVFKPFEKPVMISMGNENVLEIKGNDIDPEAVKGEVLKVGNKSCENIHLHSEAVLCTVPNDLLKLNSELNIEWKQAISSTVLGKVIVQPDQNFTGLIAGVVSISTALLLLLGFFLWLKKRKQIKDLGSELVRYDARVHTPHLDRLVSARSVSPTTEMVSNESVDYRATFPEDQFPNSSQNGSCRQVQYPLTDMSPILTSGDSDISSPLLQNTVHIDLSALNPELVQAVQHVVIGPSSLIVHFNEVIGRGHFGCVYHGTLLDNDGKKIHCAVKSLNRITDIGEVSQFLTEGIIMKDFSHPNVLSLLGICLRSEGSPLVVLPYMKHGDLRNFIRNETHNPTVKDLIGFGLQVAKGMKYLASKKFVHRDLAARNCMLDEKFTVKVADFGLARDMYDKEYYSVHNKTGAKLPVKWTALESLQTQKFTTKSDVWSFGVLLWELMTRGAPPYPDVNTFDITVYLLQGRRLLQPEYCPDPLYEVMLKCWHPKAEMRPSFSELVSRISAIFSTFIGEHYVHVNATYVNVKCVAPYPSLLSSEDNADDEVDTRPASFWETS
Test [7] concerns Hepatocyte growth factor receptor (Homo sapiens), P08581 [Y1235D]. Described as §1.
Hepatocyte growth factor receptor (Homo sapiens), P08581 [Y1235D], sequence (P08581 whole entry Y1235D): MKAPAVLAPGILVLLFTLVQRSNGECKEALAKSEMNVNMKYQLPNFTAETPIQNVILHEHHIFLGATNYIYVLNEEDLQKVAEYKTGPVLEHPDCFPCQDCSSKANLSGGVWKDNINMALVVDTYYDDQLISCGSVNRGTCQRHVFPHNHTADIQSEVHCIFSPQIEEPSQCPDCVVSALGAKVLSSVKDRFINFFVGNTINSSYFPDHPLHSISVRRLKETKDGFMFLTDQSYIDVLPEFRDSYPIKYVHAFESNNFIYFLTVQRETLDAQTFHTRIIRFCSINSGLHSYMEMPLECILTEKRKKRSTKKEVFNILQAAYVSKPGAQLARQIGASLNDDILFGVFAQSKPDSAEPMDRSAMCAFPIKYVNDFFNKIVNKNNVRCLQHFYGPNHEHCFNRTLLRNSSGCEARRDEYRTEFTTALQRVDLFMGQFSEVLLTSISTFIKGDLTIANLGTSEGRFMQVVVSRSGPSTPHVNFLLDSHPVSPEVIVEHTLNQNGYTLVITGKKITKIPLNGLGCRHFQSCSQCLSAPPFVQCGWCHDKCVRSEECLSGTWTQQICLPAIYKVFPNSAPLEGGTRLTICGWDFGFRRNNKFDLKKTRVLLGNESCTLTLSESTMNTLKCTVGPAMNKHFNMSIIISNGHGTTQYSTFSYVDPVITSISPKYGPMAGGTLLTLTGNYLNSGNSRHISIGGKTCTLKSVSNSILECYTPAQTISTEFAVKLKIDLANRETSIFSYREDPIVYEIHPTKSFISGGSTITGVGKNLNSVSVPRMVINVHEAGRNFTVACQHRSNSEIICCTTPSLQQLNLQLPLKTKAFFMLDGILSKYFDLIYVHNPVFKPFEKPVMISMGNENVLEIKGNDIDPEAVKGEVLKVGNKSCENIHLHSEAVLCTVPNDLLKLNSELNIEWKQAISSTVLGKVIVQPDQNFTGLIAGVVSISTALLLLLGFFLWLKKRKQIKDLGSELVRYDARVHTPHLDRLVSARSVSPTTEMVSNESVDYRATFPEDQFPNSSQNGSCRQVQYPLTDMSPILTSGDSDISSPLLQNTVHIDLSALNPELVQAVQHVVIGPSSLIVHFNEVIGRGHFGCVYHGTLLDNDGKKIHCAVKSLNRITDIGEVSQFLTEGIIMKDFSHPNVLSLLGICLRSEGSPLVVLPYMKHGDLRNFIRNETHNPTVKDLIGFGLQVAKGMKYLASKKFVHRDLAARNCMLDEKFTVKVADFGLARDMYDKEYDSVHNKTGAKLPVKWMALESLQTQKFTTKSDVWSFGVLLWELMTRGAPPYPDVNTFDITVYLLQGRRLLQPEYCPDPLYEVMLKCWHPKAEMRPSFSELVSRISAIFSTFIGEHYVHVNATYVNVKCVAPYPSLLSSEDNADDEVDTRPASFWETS
For test [8], the target named is Hepatocyte growth factor receptor (Homo sapiens, UniProt P08581). Described as §1.
Test [9] addresses Calcium/calmodulin-dependent protein kinase kinase 2 (Homo sapiens) (UniProt Q96RR4). Kind of test: Selectivity interaction (Kinase panel (literature)) EUB0001199aCl CAMKK2. To be noted: at 1 µM.
For test [10], the target named is Protein kinase C alpha type (Homo sapiens, UniProt P17252). The test can be described thus: Selectivity interaction (Upstate Kinase Profiler service (Millipore)) EUB0000056c PRKCA. To be noted: at 1 µM.
Test [11] addresses T2, Tyrosine-protein kinase receptor TYRO3 (Homo sapiens) (UniProt Q06418).
T2 sequence (whole entry): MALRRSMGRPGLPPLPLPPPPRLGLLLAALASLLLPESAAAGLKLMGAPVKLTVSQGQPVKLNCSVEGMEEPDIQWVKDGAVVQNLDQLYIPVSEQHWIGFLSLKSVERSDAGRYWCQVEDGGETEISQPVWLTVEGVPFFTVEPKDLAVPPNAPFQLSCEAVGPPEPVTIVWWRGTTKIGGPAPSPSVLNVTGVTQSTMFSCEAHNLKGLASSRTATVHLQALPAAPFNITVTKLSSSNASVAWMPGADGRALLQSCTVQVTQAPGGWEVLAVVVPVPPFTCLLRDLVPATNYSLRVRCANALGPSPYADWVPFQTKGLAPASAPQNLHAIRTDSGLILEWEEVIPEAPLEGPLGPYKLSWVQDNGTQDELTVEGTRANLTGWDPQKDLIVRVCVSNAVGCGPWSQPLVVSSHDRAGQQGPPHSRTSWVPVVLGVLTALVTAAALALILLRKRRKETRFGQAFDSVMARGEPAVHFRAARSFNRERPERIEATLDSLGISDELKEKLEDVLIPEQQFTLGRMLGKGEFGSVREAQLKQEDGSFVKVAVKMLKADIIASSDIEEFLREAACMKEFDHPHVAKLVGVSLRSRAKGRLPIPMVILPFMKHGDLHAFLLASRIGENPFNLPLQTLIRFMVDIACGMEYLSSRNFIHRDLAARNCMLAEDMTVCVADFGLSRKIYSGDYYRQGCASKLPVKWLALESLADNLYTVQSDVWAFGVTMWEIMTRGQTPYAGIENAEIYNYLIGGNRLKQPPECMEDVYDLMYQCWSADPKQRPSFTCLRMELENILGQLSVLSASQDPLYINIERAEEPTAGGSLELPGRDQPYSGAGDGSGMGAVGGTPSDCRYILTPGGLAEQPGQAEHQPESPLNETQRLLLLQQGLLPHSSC
Kind of test: Selectivity interaction (Upstate Kinase Profiler service (Millipore)) EUB0000056c TYRO3. To be noted: at 1 µM.

The target of the next test is Aurora kinase A (Homo sapiens, UniProt O14965). Kind of test: Selectivity interaction (Kinase panel (33PanQinase(R) Activity Assay)) EUB0000877a STK6.
Aurora kinase A, sequence (O14965 whole entry): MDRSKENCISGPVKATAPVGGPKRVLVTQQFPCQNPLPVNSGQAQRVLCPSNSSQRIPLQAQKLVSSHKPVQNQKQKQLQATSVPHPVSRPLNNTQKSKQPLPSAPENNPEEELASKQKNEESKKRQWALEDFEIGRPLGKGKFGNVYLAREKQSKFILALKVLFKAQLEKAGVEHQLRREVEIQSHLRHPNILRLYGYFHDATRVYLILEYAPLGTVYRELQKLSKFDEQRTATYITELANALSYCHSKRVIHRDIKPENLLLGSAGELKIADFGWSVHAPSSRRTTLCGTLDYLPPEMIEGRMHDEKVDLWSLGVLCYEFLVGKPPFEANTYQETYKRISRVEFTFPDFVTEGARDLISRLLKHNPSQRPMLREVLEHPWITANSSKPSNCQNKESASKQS
The target in test [12] is Vascular endothelial growth factor receptor 2 (Homo sapiens, UniProt P35968). The test can be described thus: Selectivity interaction (KinomeScan (DiscoverX)) EUB0001079a KDR. To be noted: at 1 µM.
Test [13] addresses Proto-oncogene tyrosine-protein kinase ROS (Homo sapiens) (UniProt P08922). Kind of test: Selectivity interaction (Millipore kinase profiler) EUB0000124b ROS1. The settings on record: at 10 µM.

Cyclin-dependent kinase 13, sequence (Q14004 whole entry, looked up): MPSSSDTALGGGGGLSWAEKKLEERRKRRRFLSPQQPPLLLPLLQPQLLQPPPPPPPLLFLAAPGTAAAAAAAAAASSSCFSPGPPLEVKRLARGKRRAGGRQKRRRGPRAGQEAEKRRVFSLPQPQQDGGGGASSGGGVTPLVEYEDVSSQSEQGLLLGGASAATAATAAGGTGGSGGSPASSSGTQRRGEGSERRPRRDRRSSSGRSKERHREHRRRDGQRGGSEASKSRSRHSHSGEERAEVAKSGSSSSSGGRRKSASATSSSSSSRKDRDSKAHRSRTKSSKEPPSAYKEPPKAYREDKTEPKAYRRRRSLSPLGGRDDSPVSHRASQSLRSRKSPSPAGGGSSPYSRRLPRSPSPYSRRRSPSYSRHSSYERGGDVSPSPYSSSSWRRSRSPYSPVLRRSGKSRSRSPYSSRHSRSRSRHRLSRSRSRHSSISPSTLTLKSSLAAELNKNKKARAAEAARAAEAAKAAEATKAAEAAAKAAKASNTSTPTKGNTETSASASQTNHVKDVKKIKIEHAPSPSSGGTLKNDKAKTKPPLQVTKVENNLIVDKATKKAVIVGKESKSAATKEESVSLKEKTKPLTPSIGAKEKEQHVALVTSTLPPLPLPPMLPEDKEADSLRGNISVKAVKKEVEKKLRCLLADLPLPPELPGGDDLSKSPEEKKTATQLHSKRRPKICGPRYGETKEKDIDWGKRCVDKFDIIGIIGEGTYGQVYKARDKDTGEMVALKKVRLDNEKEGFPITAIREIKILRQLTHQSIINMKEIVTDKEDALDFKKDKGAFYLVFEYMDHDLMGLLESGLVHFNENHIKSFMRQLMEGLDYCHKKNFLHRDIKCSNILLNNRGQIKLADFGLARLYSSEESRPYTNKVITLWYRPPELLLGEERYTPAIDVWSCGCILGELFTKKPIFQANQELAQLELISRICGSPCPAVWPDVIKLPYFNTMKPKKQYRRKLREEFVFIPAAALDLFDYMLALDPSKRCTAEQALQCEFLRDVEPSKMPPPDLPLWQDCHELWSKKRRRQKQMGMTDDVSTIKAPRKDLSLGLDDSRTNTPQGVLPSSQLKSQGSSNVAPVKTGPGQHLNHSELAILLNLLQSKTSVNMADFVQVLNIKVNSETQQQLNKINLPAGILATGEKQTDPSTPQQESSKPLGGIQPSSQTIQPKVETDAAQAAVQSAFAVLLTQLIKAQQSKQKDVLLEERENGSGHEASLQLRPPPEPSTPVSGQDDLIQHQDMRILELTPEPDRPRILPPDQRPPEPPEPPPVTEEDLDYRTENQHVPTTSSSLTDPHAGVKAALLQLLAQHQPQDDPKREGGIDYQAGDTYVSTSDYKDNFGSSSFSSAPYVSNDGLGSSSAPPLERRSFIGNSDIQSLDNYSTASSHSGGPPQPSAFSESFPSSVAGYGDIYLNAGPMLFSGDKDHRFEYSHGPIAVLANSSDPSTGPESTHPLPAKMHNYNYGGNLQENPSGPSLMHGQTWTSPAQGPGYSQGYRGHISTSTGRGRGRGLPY
Serine/threonine-protein kinase 26, sequence (Q9P289 2-416 limits assumed): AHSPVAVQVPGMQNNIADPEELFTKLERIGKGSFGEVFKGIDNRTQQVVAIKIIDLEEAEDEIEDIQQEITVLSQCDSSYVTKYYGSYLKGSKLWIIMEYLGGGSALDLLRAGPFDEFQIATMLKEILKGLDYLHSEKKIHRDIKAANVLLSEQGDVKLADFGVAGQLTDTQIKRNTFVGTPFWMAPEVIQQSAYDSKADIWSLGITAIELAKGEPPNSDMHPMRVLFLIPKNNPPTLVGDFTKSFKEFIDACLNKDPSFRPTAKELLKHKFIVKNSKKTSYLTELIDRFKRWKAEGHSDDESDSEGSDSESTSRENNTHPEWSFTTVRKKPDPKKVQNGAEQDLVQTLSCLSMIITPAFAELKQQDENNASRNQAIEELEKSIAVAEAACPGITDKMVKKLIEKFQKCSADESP

As to `O=C(NOC[C@H](O)CO)c1ccc(F)c(F)c1Nc1ccc(I)cc1F`, the % of control in [1] came to 77%.

The compound `Cc1cc([C@@H](C)Nc2ccccc2C(=O)O)c2nc(N3CCOCC3)cc(=O)n2c1` [AZD-6482] had a % of control in test [2] of 100%.

As for `CC[C@@H]1[C@H](F)C(=O)N[C@@H]1COc1nccc2cc(C(N)=O)c(OC)cc12` [ZIMLOVISERTIB], the % of inhibition in [3] (at 0.01 µM) was 3.8%; in [3] (at 0.04 µM) it was -10.7%; in [3] (at 0.2 µM) it was -1.5%; in test [3] (at 1 µM), -2.6%; in test [3] (at 5 µM), 5.1%; in test [4] (at 0.01 µM) it was 10.4%. The % of inhibition in test [4] (at 0.04 µM) is 9.1%; in test [4] (at 0.2 µM), 19.8%; in test [4] (at 1 µM) it was 21.6%; in [4] (at 5 µM) it was 36.9%; in test [5], -11.5%.

Turning to `C=CC(=O)Nc1cc(-n2c(=O)ccc3cnc4ccc(-c5ccc(NS(C)(=O)=O)cc5)cc4c32)ccc1C`, the % of control in test [6] (at 1 µM) turned out to be 80%; in test [6] (at 10 µM), 90%; in test [7] (at 1 µM), 95%; in test [7] (at 10 µM), 100%; in [8] (at 1 µM), 100%; in [8] (at 10 µM) it was 64%.

On to `CN1Cc2nccc(-c3cn(C)nc3-c3ccc(F)cc3)c2C1=O`, for which the % of inhibition in test [9] was -3%.

With `Cc1ccc(-c2ccc3c(ccc4sc5c(c43)NC[C@@H](C)NC5=O)n2)cn1`, the % of inhibition turned out to be 11% in test [10] and 10% in test [11].

`CCC(=O)N1CC[C@H](Nc2ncnc3c2CN(c2cnc(OC)c(C(F)(F)F)c2)CC3)C1` [LENIOLISIB] displayed an IC50 against Aurora kinase A above 10 µM.

On to `Nc1cnc(N2CCc3cc(S(=O)(=O)Nc4c(F)cc(Cl)cc4F)cc(N4CCCC4=O)c32)nc1` [TP-020n], for which the % of control in [12] was determined as 81%.

With `CC(=O)Nc1cccc(-n2c(=O)n(C3CC3)c(=O)c3c(Nc4ccc(I)cc4F)n(C)c(=O)c(C)c32)c1`, the % of control in test [13] came to 107%.
